Several values for one entry are separate records, joined by “and”; a condition that tells them apart may be missing. Equal entries are not always repeated. Inconclusive results and toxic doses are left out. No stated cut-off is given here; in the data, active means T/C of 150% or more; inactive means T/C below 125%.
Test system: L1210 leukemia ip in BDF1 mice, survival T/C
Assay: NCI In Vivo Anticancer Drug Screen. Data for tumor model L1210 Leukemia (intraperitoneal) in B6D2F1 (BDF1) mice
Settings: endpoint: mean survival time, higher = longer survival
In short: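 Mice bearing the transplanted tumor received compound or vehicle. Survival of the treated group was divided by that of the vehicle-treated control group to give the ratio.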

[1] = dose: 100.0 mg/kg/injection, schedule: Q01DX001 (ip), vehicle: saline
[2] = dose: 100.0 mg/kg/injection, schedule: Q01DX009 (ip), vehicle: Klucel (hydroxypropylcellulose) (HPC)
[3] = dose: 200.0 mg/kg/injection, schedule: Q01DX001 (ip), vehicle: saline
[4] = dose: 200.0 mg/kg/injection, schedule: Q01DX009 (ip), vehicle: Klucel (hydroxypropylcellulose) (HPC)
[5] = dose: 100.0 mg/kg/injection, schedule: Q01DX001 (ip), vehicle: carboxymethylcellulose (CMC)
[6] = dose: 200.0 mg/kg/injection, schedule: Q01DX001 (ip), vehicle: carboxymethylcellulose (CMC)
[7] = dose: 400.0 mg/kg/injection, schedule: Q01DX001 (ip), vehicle: carboxymethylcellulose (CMC)
[8] = dose: 100.0 mg/kg/injection, schedule: Q04DX003 (ip), vehicle: Klucel (hydroxypropylcellulose) (HPC)
[9] = dose: 200.0 mg/kg/injection, schedule: Q04DX003 (ip), vehicle: Klucel (hydroxypropylcellulose) (HPC)
[10] = dose: 400.0 mg/kg/injection, schedule: Q04DX003 (ip), vehicle: Klucel (hydroxypropylcellulose) (HPC)
[11] = dose: 100.0 mg/kg/injection, schedule: Q04DX002 (ip), vehicle: Klucel (hydroxypropylcellulose) (HPC)
[12] = dose: 50.0 mg/kg/injection, schedule: Q01DX009 (ip), vehicle: saline with Tween-80
[13] = dose: 100.0 mg/kg/injection, schedule: Q01DX009 (ip), vehicle: saline with Tween-80
[14] = dose: 200.0 mg/kg/injection, schedule: Q01DX009 (ip), vehicle: saline with Tween-80
[15] = dose: 200.0 mg/kg/injection, schedule: Q04DX002 (ip), vehicle: Klucel (hydroxypropylcellulose) (HPC)
[16] = dose: 400.0 mg/kg/injection, schedule: Q04DX002 (ip), vehicle: Klucel (hydroxypropylcellulose) (HPC)
[17] = dose: 50.0 mg/kg/injection, schedule: Q01DX009 (ip), vehicle: saline
[18] = dose: 100.0 mg/kg/injection, schedule: Q01DX009 (ip), vehicle: saline
[19] = dose: 100.0 mg/kg/injection, schedule: Q04DX003 (ip), vehicle: saline with Tween-80
[20] = dose: 200.0 mg/kg/injection, schedule: Q04DX003 (ip), vehicle: saline with Tween-80
[21] = dose: 400.0 mg/kg/injection, schedule: Q04DX003 (ip), vehicle: saline with Tween-80
[22] = dose: 400.0 mg/kg/injection, schedule: Q01DX009 (ip), vehicle: saline with Tween-80

Measured: T/C

O=C1/C(=C\c2ccc([N+](=O)[O-])cc2)CS(=O)(=O)C/C1=C/c1ccc([N+](=O)[O-])cc1
inactive: dose: 50.0 mg/kg/injection, schedule: Q01DX009 (ip), vehicle: Klucel (hydroxypropylcellulose) (HPC) 97 % of control | [1] 97 % of control | [2] 93 % of control | [3] 94 % of control | [4] 92 % of control

CC1([N+](=O)[O-])COP(=O)(NCc2ccccc2)OC1 (stereo not drawn)
inactive: dose: 50.0 mg/kg/injection, schedule: Q01DX001 (ip), vehicle: carboxymethylcellulose (CMC) 97 % of control | [5] 107 % of control | [6] 109 % of control | [7] 97 % of control

CC(=O)Oc1c(Br)c(-c2c(C)c(Br)c(C)c(Br)c2C)c(OC(C)=O)c(Br)c1-c1c(C)c(Br)c(C)c(Br)c1C
inactive: [2] 95 % of control | [4] 100 % of control | dose: 400.0 mg/kg/injection, schedule: Q01DX009 (ip), vehicle: Klucel (hydroxypropylcellulose) (HPC) 95 % of control

CCC(NC(=O)c1ccccc1)C(=O)O (stereo not drawn)
inactive: [8] 95 % of control | [9] 101 % of control | [10] 103 % of control

CC12CCC(=O)C=C1CCC1C2C(=O)CC2(C)C1CCC2(O)C(=O)COC(=O)c1cc([N+](=O)[O-])c(N2CC2)c([N+](=O)[O-])c1 (stereo not drawn)
inactive: dose: 50.0 mg/kg/injection, schedule: Q01DX001 (sc), vehicle: steriod suspending solution 103 % of control | dose: 60.0 mg/kg/injection, schedule: Q01DX015 (ip), vehicle: saline 96 % of control | dose: 90.0 mg/kg/injection, schedule: Q01DX015 (ip), vehicle: saline 100 % of control | dose: 100.0 mg/kg/injection, schedule: Q01DX001 (sc), vehicle: steriod suspending solution 95 % of control | dose: 135.0 mg/kg/injection, schedule: Q01DX015 (ip), vehicle: saline 102 % of control | dose: 200.0 mg/kg/injection, schedule: Q01DX001 (sc), vehicle: steriod suspending solution 101 % of control | dose: 200.0 mg/kg/injection, schedule: Q01DX015 (ip), vehicle: saline 96 % of control | dose: 400.0 mg/kg/injection, schedule: Q01DX001 (sc), vehicle: steriod suspending solution 103 % of control

CCCCC1=Cc2cc3c(cc2C1N(C)C)OCO3 (stereo not drawn)
inactive: dose: 6.25 mg/kg/injection, schedule: Q04DX002 (ip), vehicle: Klucel (hydroxypropylcellulose) (HPC) 102 % of control | dose: 12.5 mg/kg/injection, schedule: Q04DX002 (ip), vehicle: Klucel (hydroxypropylcellulose) (HPC) 99 % of control | dose: 25.0 mg/kg/injection, schedule: Q04DX002 (ip), vehicle: Klucel (hydroxypropylcellulose) (HPC) 95 % of control and 105 % of control | [11] 92 % of control

CC(C)OC(=O)Nc1ccc(Cl)cn1
inactive: [8] 103 % of control | [9] 101 % of control | [10] 95 % of control

Cc1ccc(-c2c(C)c(-c3ccccc3)c(-c3ccccc3)c(C)c2-c2ccccc2)cc1C
inactive: dose: 100.0 mg/kg/injection, schedule: Q01DX001 (ip), vehicle: saline with Tween-80 104 % of control | dose: 200.0 mg/kg/injection, schedule: Q01DX001 (ip), vehicle: saline with Tween-80 100 % of control | dose: 400.0 mg/kg/injection, schedule: Q01DX001 (ip), vehicle: saline with Tween-80 100 % of control

Cc1cc(=O)n(C)c2ccccc12
inactive: [12] 97 % of control | [5] 93 % of control | [2] 104 % of control | [13] 101 % of control | [6] 93 % of control | [4] 93 % of control | [14] 94 % of control

CN1C(=O)CCN(CCN2CCC(=O)N(C)C2=S)C1=S
inactive: [11] 114 % of control | [15] 103 % of control | [16] 96 % of control

C=C(Br)CNC(C)=O
inactive: dose: 12.5 mg/kg/injection, schedule: Q01DX009 (ip), vehicle: saline 113 % of control | dose: 25.0 mg/kg/injection, schedule: Q01DX009 (ip), vehicle: saline 106 % of control | [17] 98 % of control | [18] 120 % of control | dose: 100.0 mg/kg/injection, schedule: Q04DX003 (ip), vehicle: saline 113 % of control | dose: 200.0 mg/kg/injection, schedule: Q04DX003 (ip), vehicle: saline 113 % of control

Cc1ccc(S(=O)(=O)N(C)CCC(C)C(=O)NN(C)c2ccccc2)cc1 (stereo not drawn)
inactive: dose: 75.0 mg/kg/injection, schedule: Q01DX001 (ip), vehicle: saline 95 % of control | dose: 150.0 mg/kg/injection, schedule: Q01DX001 (ip), vehicle: saline 89 % of control | dose: 300.0 mg/kg/injection, schedule: Q01DX001 (ip), vehicle: saline 90 % of control

O=[N+]([O-])c1cc(N(c2ccccc2)c2ccccc2)c(Cl)cc1Cl
inactive: [5] 111 % of control | [6] 103 % of control | [7] 95 % of control

CN(C=O)c1ccccc1C(=O)O
inactive: [19] 97 % of control | [20] 97 % of control | [21] 100 % of control

COC(C(OC)N1CCOCC1)N1CCOCC1 (stereo not drawn)
inactive: [17] 102 % of control | [13] 95 % of control | [18] 110 % of control | [19] 93 % of control | dose: 132.0 mg/kg/injection, schedule: Q01DX009 (ip), vehicle: saline with Tween-80 90 % of control | [14] 101 % of control and 97 % of control | [20] 98 % of control | dose: 300.0 mg/kg/injection, schedule: Q01DX009 (ip), vehicle: saline with Tween-80 99 % of control | [22] 89 % of control | [21] 94 % of control

COC(=O)C(C)NC(=O)CNC(=O)OCc1ccccc1 (stereo not drawn)
inactive: [13] 97 % of control | [14] 102 % of control | [22] 92 % of control

[CH3][Sn]([CH3])([CH3])[O][N+](=O)[O-]
inactive: dose: 0.18 mg/kg/injection, schedule: Q01DX009 (ip), vehicle: saline 94 % of control | dose: 0.37 mg/kg/injection, schedule: Q01DX009 (ip), vehicle: saline 100 % of control | dose: 0.75 mg/kg/injection, schedule: Q01DX009 (ip), vehicle: saline 103 % of control | dose: 1.5 mg/kg/injection, schedule: Q04DX003 (ip), vehicle: saline 108 % of control | dose: 3.0 mg/kg/injection, schedule: Q04DX003 (ip), vehicle: saline 103 % of control

CC1(C)C(=O)C2C=CCC21 (stereo not drawn)
inactive: [12] 91 % of control | [13] 98 % of control | [14] 95 % of control

O=C(O)c1ccc2c(c1Nc1ccc(-c3ccc(Nc4c(C(=O)O)ccc5c4C(=O)c4ccccc4C5=O)cc3)cc1)C(=O)c1ccccc1C2=O
inactive: [8] 93 % of control | [9] 97 % of control | [10] 101 % of control

O=C(NC/C=C/Br)Nc1cnc2ccccc2c1
inactive: dose: 12.5 mg/kg/injection, schedule: Q01DX009 (ip), vehicle: saline with Tween-80 96 % of control | dose: 25.0 mg/kg/injection, schedule: Q01DX009 (ip), vehicle: saline with Tween-80 101 % of control | [12] 96 % of control | [19] 89 % of control

O=C1c2ccccc2C(=O)N1CCCn1c2ccccc2c2cnccc21
inactive: [13] 101 % of control | [19] 103 % of control | [14] 104 % of control | [20] 95 % of control | [22] 104 % of control | [21] 92 % of control

O=S(=O)(Cc1ccccc1)C(Br)Br
inactive: dose: 100.0 mg/kg/injection, schedule: Q01DX001 (ip), vehicle: other 106 % of control | [11] 100 % of control | dose: 200.0 mg/kg/injection, schedule: Q01DX001 (ip), vehicle: other 101 % of control | [15] 97 % of control | dose: 400.0 mg/kg/injection, schedule: Q01DX001 (ip), vehicle: other 101 % of control | [16] 103 % of control

Nc1ccc2cc(S(=O)(=O)O)cc(S(=O)(=O)O)c2c1
inactive: dose: 100.0 mg/kg/injection, schedule: Q04DX002 (ip), vehicle: saline 95 % of control | dose: 200.0 mg/kg/injection, schedule: Q04DX002 (ip), vehicle: saline 102 % of control

CCCCC(=O)N/N=C\c1ccc(OCc2ccccc2)cc1
inactive: [1] 87 % of control | [3] 92 % of control | dose: 400.0 mg/kg/injection, schedule: Q01DX001 (ip), vehicle: saline 87 % of control

Reference: PubChem BioAssay AID248 (DTP/NCI, 2004)
